This is an account of results in patent US12409157B2, “Mitofusin activators and methods of use thereof” (Mitochondria Emotion, Inc., priority 2019, dated 2025).

Data set [1] relates to T1, mitofusin.
T1 construct: EC50 Mito Elongation; other: benchmark <30; unit given as nm; results of functional screening (mitochondrial elongation); other: DMSO vehicle, Reg C positive control
Description: mitofusin-dependent mitochondrial elongation (aspect ratio), functional screening. The data set is classed as cell-based, mouse. As to conditions: DMSO vehicle, Reg C positive control; FIGS. 2-5.

Data set [2] can be described thus: Plasma stability, mouse. It counts as in vitro ADME. The note with it: M.
Data set [3] is described as follows: Plasma stability, human. As to conditions: H. The data set is classed as in vitro ADME.
The target in data set [4] is T2, MFN2 (Homo sapiens, UniProt O95140).
T2 sequence (O95140 1-757): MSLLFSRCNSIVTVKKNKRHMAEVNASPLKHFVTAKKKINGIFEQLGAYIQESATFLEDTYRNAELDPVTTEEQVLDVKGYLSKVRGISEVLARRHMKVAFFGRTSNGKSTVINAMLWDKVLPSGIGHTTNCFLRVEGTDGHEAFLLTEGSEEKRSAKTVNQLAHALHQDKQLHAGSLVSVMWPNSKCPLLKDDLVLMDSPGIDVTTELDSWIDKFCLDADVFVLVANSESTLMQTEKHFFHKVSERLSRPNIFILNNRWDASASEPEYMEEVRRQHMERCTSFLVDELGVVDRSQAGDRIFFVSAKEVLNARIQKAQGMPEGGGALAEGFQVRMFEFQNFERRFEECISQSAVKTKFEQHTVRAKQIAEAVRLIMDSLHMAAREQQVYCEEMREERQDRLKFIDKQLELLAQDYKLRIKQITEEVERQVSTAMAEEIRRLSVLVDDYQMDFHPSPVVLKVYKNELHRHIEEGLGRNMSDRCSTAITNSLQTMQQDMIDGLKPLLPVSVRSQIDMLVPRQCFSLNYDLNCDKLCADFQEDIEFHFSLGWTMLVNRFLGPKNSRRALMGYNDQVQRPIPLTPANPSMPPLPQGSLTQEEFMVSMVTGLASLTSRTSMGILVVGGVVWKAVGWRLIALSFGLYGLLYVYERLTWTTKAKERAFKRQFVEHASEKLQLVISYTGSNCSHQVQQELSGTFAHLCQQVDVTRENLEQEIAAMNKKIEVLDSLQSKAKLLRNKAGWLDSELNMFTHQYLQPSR
Description: conformational opening of mitofusin 2. The data set is classed as biochemical. The note with it: FIG. 6B.

The subject of data set [5] is mitofusin. The note with it: Rocha et al 2018 Science 360:336; read-out: EC50 as mitofusin activator; cited from earlier work.

Entries after “also recorded” stand apart in the source; their conditions may differ.

For `CC1CC(O)CCC1NC(=O)NCCCCc1ccccc1` (stereo not shown) [MiM5, 1-(4-Hydroxy-2-methylcyclohexyl)-3-(4-phenylbutyl)urea], the “results of functional screening (mitochondrial elongation)” value in data set [1] is reported as “highly active”.

Take `O=C(CCCCCc1ccccn1)NC1CCC(O)CC1` (stereo not shown) [MiM111 N1, (4-Hydroxycyclohexyl)-6-(pyridin-2-yl)hexanamide]: the “results of functional screening (mitochondrial elongation)” value in data set [1] is given as “All compounds except MiM111 N1 were highly active”.

Take `O=C(CCCCCc1ccccc1)NC1CCC(O)CC1` (stereo not shown) [MiM111, N-(4-hydroxycyclohexyl)-6-phenylhexanamide]: the “Plasma Stability (120 min.)” value was 100% in data set [2] and 87% in data set [3]. Besides, in data set [4], the “conformational opening of MFN2” value is on record as “induces an open conformation of its target MFN2; also recorded: conformational opening of MFN 2 mimics that of an agonist peptide”.

Take `CC1CCCCC1NC(=O)NCCSCc1ccccc1` (stereo not shown) [compound A, 1-[2-(benzylsulfanyl)ethyl]-3-(2-methylcyclohexyl)urea]: the EC50 (usually the midpoint of the concentration-response curve) in data set [5] is about 30 nM.

Take `CC(Sc1nnc(C2CC2)n1-c1ccccc1)C(=O)Nc1sc2c(c1C(N)=O)CCC2` (stereo not shown) [compound B, 2-{2-[(5-cyclopropyl-4-phenyl-4H-1,2,4-triazol-3-yl)sulfanyl]propanamido}-4H,5H,6H-cyclopenta[b]thiophene-3-carboxamide]: the EC50 in data set [5] was about 10 nM.
